The results in this text go back to patent US20060211081A1, “Sec14 as an antifungal target” (priority 2002, published 2006).

This test has as its system C. albicans conditional mutants (SEC14 gene under tetracycline repressible promoter). Nature of the test: Murine model of systemic infection with C. albicans conditional mutants, kidney burdens. The settings on record: +DOX group (2 mg/ml in 5% sucrose drinking water), at the start of the study and at day 28; 1×10^6 CFU/mouse i.v. The test is classed as in vivo, BALB/c mice. The method, then: To further validate the essential nature of the SEC14 gene, the conditional mutants of C. albicans strains (as described in Example 4, section 4.1), wherein the SEC14 gene is under the control of a tetracycline repressible promoter, may be tested to determine whether they are attenuated in an immuno-competent murine model of infection (Ghannoum, et al, 1995) as follows:
Initially the organisms were grown in the absence of DOX, since under these conditions they would express the SEC14 gene. These organisms were then used to inoculate two groups of 12 of mice. One group wss treated with DOX, in which expression of the SEC14 gene was repressed, and the second group of mice was treated with water (control) wherein the gene continued to be expressed. The mice used were single sex BALB/c mice, Harlan, 4 weeks old and weighing between 19-22 g.
Infective doses of C. albicans were injected into the tail vein. The inocula were from saline-washed fresh stationary phase cultures grown in NGY medium [0.1% neopeptone, 0.4% glucose, 0.1% yeast extract] for 18-24 h at 30° C. […]
Animals were fed food and water ad libitum throughout the course of experiment. […] Differences between the effects of C. albicans with the SEC14 gene active (−DOX) or repressed (+DOX) in vivo were monitored by mouse survival, kidney burdens of viable fungi, and changes in body weight relative to baseline. […]

Bounds are passed on as bounds.

For `C[C@H]1c2cccc(O)c2C(=O)C2=C(O)[C@]3(O)C(=O)C(C(N)=O)=C(O)[C@@H](N(C)C)[C@@H]3[C@@H](O)[C@@H]21` [doxycycline], the “Kidney counts (colony forming unit counts per gram of kidney tissue)” value is less than 200 cfu/g.
